Test results reported in the supplement of paper PMC11208160.

Assay: recombinant UMI read abundance after kanamycin selection (control-corrected) (log10(CPM+1)); higher = more efficient recombination; extreme values may be limits of the assay; sequences stand for … in AGTGCAGAGAAAATCGGCCAGTTTTCTCTGCCTGCAGTCCGCATGCCGTGGGACCCCTTGGGTTCTAACCTGTTGCCTAGATTTATGCAGCGGACTGCCTTTCTCCCAAAGTGATAAACCGG…AGGTTGGTTTCACT; site = the 11-nt donor
Summary of the method: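 After plating on IPTG (0.07 mM) plus kanamycin, or unselected, in two replicates, recombinant UMIs were PCR-amplified across the donor–target junction and sequenced. The cells were Escherichia coli co-electroporated with a UMI-tagged donor and donor-binding-loop pair library and a target plasmid with a fixed target and T7-inducible IS621 bridge recombinase. Values are log10(CPM+1), with CPM averaged over replicates and scaled by control-derived factors.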
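Also: IS621 bridge recombinase in Escherichia coli cells against a fixed T5 target plasmid.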

“AGCCTTTCATGGACCGGTTTTCCCGGTAATCCGTATTTGTC (site AGCCTTTCTGC)” and “AGCCTTTCATGGACCGGTTTTCCCGGTAATCCGTATTTGTC (site AGCCTTTCTGG)” are the same in “recombinant UMI read abundance (log10)” value: 0 for the first, 0 for the second.

Going from “AGCCTTTCATGGACCGGTTTTCCCGGTAATCCGTATTTGTC (site AGCCTTTCTGT)” to “AGCGAGTCATGGACCGGTTTTCCCGGTAATCCGTATTTGAT (site AGCGAGTCTAT)”, the “recombinant UMI read abundance (log10)” value rises from 0.00535 to 2.73.

Compared with “AGCTAACCATGGACCGGTTTTCCCGGTAATCCGTATTTGCA (site AGCTAACCTTG)”, “AGCTAGTCATGGACCGGTTTTCCCGGTAATCCGTATTTGAG (site AGCTAGTCTCT)” is higher in “recombinant UMI read abundance (log10)” value: 0 for the first, 2.57 for the second.

Compared with “AGCTATACATGGACCGGTTTTCCCGGTAATCCGTATTTGAC (site AACTATACTGT)”, “AGCTATACATGGACCGGTTTTCCCGGTAATCCGTATTTGAC (site ACCTATACTGT)” is higher in “recombinant UMI read abundance (log10)” value: 0.393 for the first, 0.726 for the second.

“AGCTATACATGGACCGGTTTTCCCGGTAATCCGTATTTGAC (site AGCTATACTGT)” and “AGCTATACATGGACCGGTTTTCCCGGTAATCCGTATTTGAC (site ATCTATACTGT)” are within 0.2 log units of each other in “recombinant UMI read abundance (log10)” value: 2.03 for the first, 1.85 for the second.

“AGCTCATCATGGACCGGTTTTCCCGGTAATCCGTATTTGGG (site AGCTCAACTCC)” and “AGCTCATCATGGACCGGTTTTCCCGGTAATCCGTATTTGGG (site AGCTCACCTCC)” are within 0.2 log units of each other in “recombinant UMI read abundance (log10)” value: 0 for the first, 0.0192 for the second.

Going from “AGCTCATCATGGACCGGTTTTCCCGGTAATCCGTATTTGGG (site AGCTCAGCTCC)” to “AGCTCATCATGGACCGGTTTTCCCGGTAATCCGTATTTGGG (site AGCTCATCTCC)”, the “recombinant UMI read abundance (log10)” value rises from 0.0292 to 0.833.

“AGCTCCCCATGGACCGGTTTTCCCGGTAATCCGTATTTGGG (site AGCTCCCCTCC)” and “AGCTGAGCATGGACCGGTTTTCCCGGTAATCCGTATTTGGG (site AGCTAAGCTCC)” are within 0.2 log units of each other in “recombinant UMI read abundance (log10)” value: 0.111 for the first, 0.0048 for the second.

Going from “AGCTGAGCATGGACCGGTTTTCCCGGTAATCCGTATTTGGG (site AGCTCAGCTCC)” to “AGCTGAGCATGGACCGGTTTTCCCGGTAATCCGTATTTGGG (site AGCTGAGCTCC)”, the “recombinant UMI read abundance (log10)” value rises from 0 to 0.385.

First: AGCTGAGCATGGACCGGTTTTCCCGGTAATCCGTATTTGGG (site AGCTTAGCTCC)
Second: AGCTGCGCATGGACCGGTTTTCCCGGTAATCCGTATTTGAA (site AGCTGCGCTTT)
The “recombinant UMI read abundance (log10)” value of the first is lower: 0.0451 for the first, 1.4 for the second.

Compared with “AGCTTCGCATGGACCGGTTTTCCCGGTAATCCGTATTTGAC (site AGCTTCGCTGT)”, “AGCTTTTCATGGACCGGTTTTCCCGGTAATCCGTATTTGAC (site AGCATTTCTGT)” is lower in “recombinant UMI read abundance (log10)” value: 1.58 for the first, 0 for the second.

“AGCTTTTCATGGACCGGTTTTCCCGGTAATCCGTATTTGAC (site AGCCTTTCTGT)” and “AGCTTTTCATGGACCGGTTTTCCCGGTAATCCGTATTTGAC (site AGCGTTTCTGT)” are the same in “recombinant UMI read abundance (log10)” value: 0 for the first, 0 for the second.

Going from “AGCTTTTCATGGACCGGTTTTCCCGGTAATCCGTATTTGAC (site AGCTTTTCTGT)” to “AGGAAAACATGGACCGGTTTTCCCGGTAATCCGTATTTGCG (site AGGAAAACTCG)”, the “recombinant UMI read abundance (log10)” value rises from 0.00446 to 1.5.

Going from “AGGAAAACATGGACCGGTTTTCCCGGTAATCCGTATTTGCG (site AGGAAGACTTG)” to “AGGAAAACATGGACCGGTTTTCCCGGTAATCCGTATTTGGG (site AGGAAAACTCC)”, the “recombinant UMI read abundance (log10)” value rises from 0 to 0.592.

Compared with “AGGAACACATGGACCGGTTTTCCCGGTAATCCGTATTTGCC (site AGGAACACTGG)”, “AGGAACACATGGACCGGTTTTCCCGGTAATCCGTATTTGCC (site AGGAAGACTTG)” is lower in “recombinant UMI read abundance (log10)” value: 3.08 for the first, 0 for the second.

Going from “AGGAAGACATGGACCGGTTTTCCCGGTAATCCGTATTTGCT (site AGGAAGACTAG)” to “AGGAAGACATGGACCGGTTTTCCCGGTAATCCGTATTTGCT (site AGGAAGACTCG)”, the “recombinant UMI read abundance (log10)” value falls from 2.25 to 0.519.

First: AGGAAGACATGGACCGGTTTTCCCGGTAATCCGTATTTGCT (site AGGAAGACTGG)
Second: AGGAAGACATGGACCGGTTTTCCCGGTAATCCGTATTTGCT (site AGGAAGACTTG)
The “recombinant UMI read abundance (log10)” value of the first is lower: 0 for the first, 1.46 for the second.

First: AGGAAGACATGGACCGGTTTTCCCGGTAATCCGTATTTGGA (site AGGAAGACTTA)
Second: AGGAAGACATGGACCGGTTTTCCCGGTAATCCGTATTTGGA (site AGGAAGACTTC)
The “recombinant UMI read abundance (log10)” value of the first is lower: 1.71 for the first, 2.32 for the second.

Going from “AGGAAGACATGGACCGGTTTTCCCGGTAATCCGTATTTGGA (site AGGAAGACTTG)” to “AGGAAGACATGGACCGGTTTTCCCGGTAATCCGTATTTGGA (site AGGAAGACTTT)”, the “recombinant UMI read abundance (log10)” value rises from 1.04 to 1.63.

Compared with “AGGAAGACATGGACCGGTTTTCCCGGTAATCCGTATTTGTG (site AGGAAGACTCA)”, “AGGAAGACATGGACCGGTTTTCCCGGTAATCCGTATTTGTG (site AGGAAGACTTG)” is lower in “recombinant UMI read abundance (log10)” value: 2.35 for the first, 0.492 for the second.

Going from “AGGAAGCCATGGACCGGTTTTCCCGGTAATCCGTATTTGAA (site AGGAAGACTTG)” to “AGGAAGCCATGGACCGGTTTTCCCGGTAATCCGTATTTGAA (site AGGAAGCCTTT)”, the “recombinant UMI read abundance (log10)” value rises from 0 to 0.308.

“AGGAAGCCATGGACCGGTTTTCCCGGTAATCCGTATTTGCA (site AGGAAGACTTG)” and “AGGAAGCCATGGACCGGTTTTCCCGGTAATCCGTATTTGCA (site AGGAAGCCTTG)” are the same in “recombinant UMI read abundance (log10)” value: 0 for the first, 0 for the second.

“AGGAAGCCATGGACCGGTTTTCCCGGTAATCCGTATTTGCA (site AGGAAGGCTTG)” and “AGGAAGCCATGGACCGGTTTTCCCGGTAATCCGTATTTGCA (site AGGAAGTCTTG)” are the same in “recombinant UMI read abundance (log10)” value: 0 for the first, 0 for the second.

First: AGGAAGTCATGGACCGGTTTTCCCGGTAATCCGTATTTGCG (site AGGAAGACTTG)
Second: AGGAAGTCATGGACCGGTTTTCCCGGTAATCCGTATTTGCG (site AGGAAGTCTCG)
The “recombinant UMI read abundance (log10)” value of the first is lower: 0 for the first, 3.16 for the second.

Going from “AGGAAGTCATGGACCGGTTTTCCCGGTAATCCGTATTTGTA (site AGGAAGACTTG)” to “AGGAAGTCATGGACCGGTTTTCCCGGTAATCCGTATTTGTA (site AGGAAGTCTTA)”, the “recombinant UMI read abundance (log10)” value rises from 0 to 2.97.

Compared with “AGGAATACATGGACCGGTTTTCCCGGTAATCCGTATTTGAC (site AGGAATACTGT)”, “AGGAATACATGGACCGGTTTTCCCGGTAATCCGTATTTGAC (site AGGACTACTGT)” is lower in “recombinant UMI read abundance (log10)” value: 1.74 for the first, 0.624 for the second.

“AGGAATACATGGACCGGTTTTCCCGGTAATCCGTATTTGAC (site AGGAGTACTGT)” and “AGGAATACATGGACCGGTTTTCCCGGTAATCCGTATTTGAC (site AGGATTACTGT)” are the same in “recombinant UMI read abundance (log10)” value: 0 for the first, 0 for the second.

Going from “AGGAATACATGGACCGGTTTTCCCGGTAATCCGTATTTGGC (site AGGAATACTGC)” to “AGGAATCCATGGACCGGTTTTCCCGGTAATCCGTATTTGCT (site AGGAATCCTAG)”, the “recombinant UMI read abundance (log10)” value falls from 2.59 to 0.

For “AGGAATCCATGGACCGGTTTTCCCGGTAATCCGTATTTGCT (site CGGAATCCTAA)”, the “recombinant UMI read abundance (log10)” value was 0.0057.
